The values that follow come from US20140072630A1, “COMBINATION THERAPY WITH NANOPARTICLE COMPOSITIONS OF TAXANE AND HEDGEHOG INHIBITORS” (ABRAXIS BIOSCIENCE, LLC, priority 2009, published 2014).

In data set [1] the test system is human colon adenocarcinoma HT29 xenograft. The experiment in a line: Tumor growth in human colon adenocarcinoma HT29 xenograft model. Type of data set: in vivo, mice. The note with it: for tumor inhibition as single agent: i.p., 75 mg/kg qdx12 and 100 mg/kg qdx12. Here is the method:
The effects of each of ABI2012, ABI1914, ABI2088, and ABI2099 on tumor growth were studied in human colon adenocarcinoma HT29 xenograft model. Mice were implanted with HT29 cells and ABI2012, ABI1914, ABI2088, and […] were administered by intraperitoneal route (“i.p.”) to the mice at two dosages: 75 mg/kg qdx12 and 100 mg/kg qdx12. […] The body weights of the mice with HT 29 xenograft treated with ABI2012, ABI1914, ABI2088, or ABI2099 were monitored, as shown in FIGS. 5B and 5D.
The effects of the combination of various Hedgehog pathway inhibitors (ABI2012, ABI1914, ABI2088, or ABI2099) and Abraxane® were studied in HT29 xenograft model. Each of ABI2012, ABI1914, ABI2088, and ABI2099 was administered at 75 mg/kg qdx12, i.p. Abraxane® was administered at 10 mg/kg q4dx3, i.v. The tumor volumes were measured. […] The body weights of the mice with HT 29 xenograft treated with each of ABI2012, ABI1914, ABI2088, and ABI2099 in combination with Abraxane® were monitored, as shown in FIG. 6B.
Background: A xenograft is tissue or cells of one species grown in another, often human tumour cells in immunodeficient mice.

The target of data set [2] is Ab1(h) (Homo sapiens, UniProt P00519). The experiment in a line: Kinase inhibition at 1 μM. The format is biochemical. To be noted: 1 μM of compound. From the text:
(§1) The activities of various hedgehog inhibitors (ABI2012, ABI1914, ABI2008, and ABI1915) on kinase inhibition were studied. […] The compounds were stable in microsomes.

The target in data set [3] is Met(h) (Homo sapiens, UniProt P08581). Description: Kinase inhibition at 1 μM. The note with it: 1 μM of compound. Type of data set: biochemical.
Description: as §1

Data set [4] has as its target EphB4(h) (Homo sapiens, UniProt P54760). Description: Kinase inhibition at 1 μM. The format is biochemical. To be noted: 1 μM of compound.
Description: as §1

For data set [5], the target named is cKit(h) (Homo sapiens, UniProt P10721). Description: Kinase inhibition at 1 μM. The format is biochemical. To be noted: 1 μM of compound.
Description: as §1

Data set [6] deals with Flt3(h) (Homo sapiens, UniProt P36888). The experiment in a line: Kinase inhibition at 1 μM. The format is biochemical. To be noted: 1 μM of compound.
Description: as §1

In data set [7] the target is EGFR(h) (Homo sapiens, UniProt P00533). Description: Kinase inhibition at 1 μM. Type of data set: biochemical. The note with it: 1 μM of compound.
Description: as §1

In data set [8] the target is TrkA(h) (Homo sapiens, UniProt P04629). The experiment in a line: Kinase inhibition at 1 μM. The note with it: 1 μM of compound. Type of data set: biochemical.
Description: as §1

Data set [9] addresses Aurora-A(h) (Homo sapiens, UniProt O14965). The experiment in a line: Kinase inhibition at 1 μM. The format is biochemical. The note with it: 1 μM of compound.
Description: as §1

The target in data set [10] is mTOR(h) (Homo sapiens, UniProt P42345). Description: Kinase inhibition at 1 μM. The note with it: 1 μM of compound. Type of data set: biochemical.
Description: as §1

In data set [11] the target is Ret(h) (Homo sapiens, UniProt P07949). The experiment in a line: Kinase inhibition at 1 μM. The format is biochemical. The note with it: 1 μM of compound.
Description: as §1

Data set [12] concerns the target GF-1R(h), activate (Homo sapiens, UniProt P08069). Description: Kinase inhibition at 1 μM. Type of data set: biochemical. To be noted: 1 μM of compound.
Description: as §1

The target of data set [13] is GSK3β(h) (Homo sapiens, UniProt P49841). Description: Kinase inhibition at 1 μM. The format is biochemical. The note with it: 1 μM of compound.
Description: as §1

Data set [14] addresses MEK1(h) (Homo sapiens, UniProt Q02750). The experiment in a line: Kinase inhibition at 1 μM. Type of data set: biochemical. To be noted: 1 μM of compound.
Description: as §1

The target in data set [15] is cSRC(h) (Homo sapiens, UniProt P12931). Description: Kinase inhibition at 1 μM. The note with it: 1 μM of compound. The format is biochemical.
Description: as §1

In data set [16] the target is PKBa(h) (Homo sapiens, UniProt P31749). The experiment in a line: Kinase inhibition at 1 μM. The format is biochemical. The note with it: 1 μM of compound.
Description: as §1

Data set [17] addresses PDGFRa(h) (Homo sapiens, UniProt P16234). The experiment in a line: Kinase inhibition at 1 μM. The format is biochemical. To be noted: 1 μM of compound.
Description: as §1

Data set [18] in a line: Drug metabolism and pharmacokinetics, IV and oral dosing. Type of data set: in vivo.
Data set [19] has as its system human Gli1 mRNA. Description: Q-RT-PCR of human Gli1 mRNA in L3.6pl and ASPC-1 pancreatic cancer xenografts. Type of data set: in vivo. The note with it: IPI-926 orally 40 mg/kg, tumors collected 24 hours later; data not shown. From the text:
(§2) The abilities of IPI-926 to regulate Gli1 expressions were examined in pancreatic cancer xenograft models of L3.6pl and ASPC-1. L3.6pl and ASPC-1 human pancreatic cell lines were implanted subcutaneously into mice. […] Human Hh ligand expression was detected and human Glil mRNA levels were not modulated with the treatment (data not shown).

Data set [20] has as its system murine Gli1 mRNA. The experiment in a line: Q-RT-PCR of murine Gli1 mRNA in L3.6pl and ASPC-1 pancreatic cancer xenografts. Type of data set: in vivo, mice. The note with it: IPI-926 orally 40 mg/kg, tumors collected 24 hours later; p<0.005.
Description: as §2

Data set [21] deals with L3.6pl pancreatic cancer xenograft. The experiment in a line: Tumor perfusion by contrast-enhanced ultrasound in L3.6pl xenograft. Type of data set: in vivo, mice. Here is the method:
The effects of IPI-926 on tumor perfusion were examined in the L3.6pl pancreatic cancer xenograft model. The L3.6pl tumor cell line was injected subcutaneously and treatment with IPI-926 was initiated. IPI-926 or vehicle was administered orally at 40 mg/kg for seven consecutive days. Mice were subjected to ultrasound image analysis using perfusion contrast enhancement (microbubbles) during the imaging procedure. […] The time to reach peak contrast was measured and there was a decrease in the IPI-926 treated animals compared to vehicle-treated animals.

For data set [22], the system named is L3.6pl pancreatic xenograft. The experiment in a line: Tumor growth in L3.6pl pancreatic xenograft model. The note with it: days post implant; IPI-926 40 mg/kg QOD, Abraxane 20 mg/kg QW1.
Description: The L3.6pl human pancreatic cell line was implanted subcutaneously into mice and treatment was initiated on Day 10 after implant. IPI-926 was administered orally at 40 mg/kg every other day (“QOD”) and Abraxane® was administered i.v. at 20 mg/kg once a week (QW1). […] Mice remained on treatment and time to reach 1000 mm^3 was recorded. Once tumors reached 1000 mm^3, mice were taken off study.
For data set [23], the system named is ASPC-1 human pancreatic tumor. Description: Tumor growth in ASPC-1 human pancreatic tumor model. To be noted: day 41, compared to vehicle control; IPI-926 40 mg/kg orally QOD, Abraxane 20 mg/kg i.v. QW1.
Description: The ASPC-1 human pancreatic cell line was implanted subcutaneously and treatment was initiated on day 20 after implant. IPI-926 was administered orally at 40 mg/kg QOD and Abraxane® was dosed i.v. at 20 mg/kg QW1. The final i.v. dose of Abraxane® was administered on day 34 and the final dose of IPI-926 was administered on day 41. Re-growth was monitored after the treatment stopped.
Where [24] appears, read: compound 75 mg/kg qdx12 i.p. + Abraxane 10 mg/kg q4dx3 i.v.

Values joined by “and” are separate entries in the source; they are usually repeats but may differ in a detail not shown here. Equal entries are not always repeated.

Chain of PKBa(h) (P31749 whole entry): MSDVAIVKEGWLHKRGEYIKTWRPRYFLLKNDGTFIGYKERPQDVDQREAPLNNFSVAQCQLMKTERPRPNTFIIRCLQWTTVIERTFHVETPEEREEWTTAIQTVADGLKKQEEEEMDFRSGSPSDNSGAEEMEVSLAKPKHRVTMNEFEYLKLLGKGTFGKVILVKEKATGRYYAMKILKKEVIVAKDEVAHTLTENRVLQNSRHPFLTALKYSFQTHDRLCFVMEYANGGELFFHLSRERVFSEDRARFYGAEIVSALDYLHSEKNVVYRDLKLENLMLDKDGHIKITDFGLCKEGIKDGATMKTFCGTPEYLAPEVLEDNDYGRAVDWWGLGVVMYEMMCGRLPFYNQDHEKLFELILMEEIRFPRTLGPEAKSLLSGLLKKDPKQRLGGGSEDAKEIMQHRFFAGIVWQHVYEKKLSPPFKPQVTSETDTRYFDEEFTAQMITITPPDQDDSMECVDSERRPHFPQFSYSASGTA
Chain of cSRC(h) (P12931 whole entry): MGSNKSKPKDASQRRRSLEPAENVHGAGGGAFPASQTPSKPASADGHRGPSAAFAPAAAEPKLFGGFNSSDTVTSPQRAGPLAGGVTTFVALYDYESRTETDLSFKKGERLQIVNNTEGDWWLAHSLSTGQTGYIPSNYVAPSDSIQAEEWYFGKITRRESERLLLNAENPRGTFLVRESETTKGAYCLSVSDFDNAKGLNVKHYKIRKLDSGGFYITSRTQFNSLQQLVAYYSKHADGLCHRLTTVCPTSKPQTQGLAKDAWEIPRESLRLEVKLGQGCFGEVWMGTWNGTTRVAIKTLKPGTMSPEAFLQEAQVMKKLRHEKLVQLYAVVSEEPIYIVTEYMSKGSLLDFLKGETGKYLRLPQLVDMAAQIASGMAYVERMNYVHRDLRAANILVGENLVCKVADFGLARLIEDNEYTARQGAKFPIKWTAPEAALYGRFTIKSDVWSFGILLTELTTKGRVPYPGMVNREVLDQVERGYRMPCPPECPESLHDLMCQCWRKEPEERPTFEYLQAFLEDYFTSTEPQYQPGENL
Chain of EGFR(h) (P00533 25-1210): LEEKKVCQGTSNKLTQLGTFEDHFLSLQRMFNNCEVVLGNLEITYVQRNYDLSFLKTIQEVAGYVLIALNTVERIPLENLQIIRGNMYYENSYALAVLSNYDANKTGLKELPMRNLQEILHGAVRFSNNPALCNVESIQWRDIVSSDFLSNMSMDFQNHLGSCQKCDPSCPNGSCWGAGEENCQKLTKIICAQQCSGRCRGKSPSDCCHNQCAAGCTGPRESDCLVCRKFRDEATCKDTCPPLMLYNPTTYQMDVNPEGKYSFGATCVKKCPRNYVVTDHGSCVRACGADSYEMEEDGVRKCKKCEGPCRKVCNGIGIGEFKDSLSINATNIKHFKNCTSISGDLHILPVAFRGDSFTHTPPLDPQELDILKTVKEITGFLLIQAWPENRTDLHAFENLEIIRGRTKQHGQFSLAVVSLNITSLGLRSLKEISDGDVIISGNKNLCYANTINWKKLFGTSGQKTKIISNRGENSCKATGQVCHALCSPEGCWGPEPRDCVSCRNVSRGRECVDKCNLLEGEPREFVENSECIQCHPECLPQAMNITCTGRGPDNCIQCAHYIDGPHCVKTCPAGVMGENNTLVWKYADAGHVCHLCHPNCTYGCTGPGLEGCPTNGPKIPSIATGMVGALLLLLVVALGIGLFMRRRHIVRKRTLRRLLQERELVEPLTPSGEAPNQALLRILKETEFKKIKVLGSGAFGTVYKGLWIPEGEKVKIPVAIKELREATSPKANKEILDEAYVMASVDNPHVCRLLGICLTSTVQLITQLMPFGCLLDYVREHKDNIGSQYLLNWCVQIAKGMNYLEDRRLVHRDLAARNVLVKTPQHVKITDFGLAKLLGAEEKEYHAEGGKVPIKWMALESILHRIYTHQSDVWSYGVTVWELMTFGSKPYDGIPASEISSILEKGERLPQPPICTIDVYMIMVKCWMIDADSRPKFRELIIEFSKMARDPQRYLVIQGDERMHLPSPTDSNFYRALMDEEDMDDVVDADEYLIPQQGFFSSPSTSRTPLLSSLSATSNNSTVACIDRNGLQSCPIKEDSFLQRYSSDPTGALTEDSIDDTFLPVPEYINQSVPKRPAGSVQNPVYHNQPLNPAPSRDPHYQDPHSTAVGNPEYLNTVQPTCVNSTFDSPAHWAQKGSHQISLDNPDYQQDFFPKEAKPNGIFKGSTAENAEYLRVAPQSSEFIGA
Chain of GF-1R(h), activate (P08069 31-1367): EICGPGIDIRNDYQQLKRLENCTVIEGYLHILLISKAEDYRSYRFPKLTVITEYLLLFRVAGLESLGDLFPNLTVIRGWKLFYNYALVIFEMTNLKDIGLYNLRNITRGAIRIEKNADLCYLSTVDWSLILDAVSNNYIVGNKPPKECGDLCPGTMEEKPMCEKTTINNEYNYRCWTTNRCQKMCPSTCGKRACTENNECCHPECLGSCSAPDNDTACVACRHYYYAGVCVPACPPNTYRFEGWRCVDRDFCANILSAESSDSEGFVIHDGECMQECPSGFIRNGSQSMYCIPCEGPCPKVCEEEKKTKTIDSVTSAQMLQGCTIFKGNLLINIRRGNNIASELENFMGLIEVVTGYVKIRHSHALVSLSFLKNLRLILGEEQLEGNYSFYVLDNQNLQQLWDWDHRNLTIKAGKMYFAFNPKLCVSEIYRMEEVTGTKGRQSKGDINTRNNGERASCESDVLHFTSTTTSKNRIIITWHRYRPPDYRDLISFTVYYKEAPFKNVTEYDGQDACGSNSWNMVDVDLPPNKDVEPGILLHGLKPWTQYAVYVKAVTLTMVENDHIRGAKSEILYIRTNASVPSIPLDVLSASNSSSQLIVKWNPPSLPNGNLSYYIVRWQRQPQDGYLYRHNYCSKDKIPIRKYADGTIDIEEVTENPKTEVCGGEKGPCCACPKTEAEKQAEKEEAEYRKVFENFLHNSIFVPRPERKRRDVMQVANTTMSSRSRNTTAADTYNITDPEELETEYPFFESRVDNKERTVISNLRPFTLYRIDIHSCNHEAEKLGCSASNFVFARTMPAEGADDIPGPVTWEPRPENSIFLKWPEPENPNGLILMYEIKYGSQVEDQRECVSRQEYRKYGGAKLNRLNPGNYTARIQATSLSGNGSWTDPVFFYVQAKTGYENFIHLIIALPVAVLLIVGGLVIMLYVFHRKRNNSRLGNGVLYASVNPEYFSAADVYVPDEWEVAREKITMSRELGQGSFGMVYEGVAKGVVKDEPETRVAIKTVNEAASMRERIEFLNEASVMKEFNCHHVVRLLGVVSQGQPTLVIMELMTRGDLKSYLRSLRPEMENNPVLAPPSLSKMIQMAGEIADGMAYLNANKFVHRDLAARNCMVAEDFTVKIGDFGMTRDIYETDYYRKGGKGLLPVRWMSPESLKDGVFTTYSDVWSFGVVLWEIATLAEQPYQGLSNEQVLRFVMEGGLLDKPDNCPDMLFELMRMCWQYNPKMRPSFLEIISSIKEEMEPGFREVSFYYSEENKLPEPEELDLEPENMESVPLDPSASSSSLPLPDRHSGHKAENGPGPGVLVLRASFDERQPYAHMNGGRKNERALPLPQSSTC
Chain of MEK1(h) (Q02750 whole entry): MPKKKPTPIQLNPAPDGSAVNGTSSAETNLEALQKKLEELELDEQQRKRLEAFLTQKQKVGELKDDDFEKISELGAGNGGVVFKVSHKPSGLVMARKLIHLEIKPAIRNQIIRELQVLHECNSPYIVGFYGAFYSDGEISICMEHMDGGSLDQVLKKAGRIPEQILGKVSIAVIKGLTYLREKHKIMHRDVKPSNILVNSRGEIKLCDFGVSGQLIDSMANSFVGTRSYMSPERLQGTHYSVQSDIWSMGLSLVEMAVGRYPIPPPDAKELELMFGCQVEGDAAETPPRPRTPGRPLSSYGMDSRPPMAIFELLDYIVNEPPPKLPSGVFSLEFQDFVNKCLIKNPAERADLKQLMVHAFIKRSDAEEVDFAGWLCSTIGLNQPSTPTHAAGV
Chain of Ret(h) (P07949 29-1114): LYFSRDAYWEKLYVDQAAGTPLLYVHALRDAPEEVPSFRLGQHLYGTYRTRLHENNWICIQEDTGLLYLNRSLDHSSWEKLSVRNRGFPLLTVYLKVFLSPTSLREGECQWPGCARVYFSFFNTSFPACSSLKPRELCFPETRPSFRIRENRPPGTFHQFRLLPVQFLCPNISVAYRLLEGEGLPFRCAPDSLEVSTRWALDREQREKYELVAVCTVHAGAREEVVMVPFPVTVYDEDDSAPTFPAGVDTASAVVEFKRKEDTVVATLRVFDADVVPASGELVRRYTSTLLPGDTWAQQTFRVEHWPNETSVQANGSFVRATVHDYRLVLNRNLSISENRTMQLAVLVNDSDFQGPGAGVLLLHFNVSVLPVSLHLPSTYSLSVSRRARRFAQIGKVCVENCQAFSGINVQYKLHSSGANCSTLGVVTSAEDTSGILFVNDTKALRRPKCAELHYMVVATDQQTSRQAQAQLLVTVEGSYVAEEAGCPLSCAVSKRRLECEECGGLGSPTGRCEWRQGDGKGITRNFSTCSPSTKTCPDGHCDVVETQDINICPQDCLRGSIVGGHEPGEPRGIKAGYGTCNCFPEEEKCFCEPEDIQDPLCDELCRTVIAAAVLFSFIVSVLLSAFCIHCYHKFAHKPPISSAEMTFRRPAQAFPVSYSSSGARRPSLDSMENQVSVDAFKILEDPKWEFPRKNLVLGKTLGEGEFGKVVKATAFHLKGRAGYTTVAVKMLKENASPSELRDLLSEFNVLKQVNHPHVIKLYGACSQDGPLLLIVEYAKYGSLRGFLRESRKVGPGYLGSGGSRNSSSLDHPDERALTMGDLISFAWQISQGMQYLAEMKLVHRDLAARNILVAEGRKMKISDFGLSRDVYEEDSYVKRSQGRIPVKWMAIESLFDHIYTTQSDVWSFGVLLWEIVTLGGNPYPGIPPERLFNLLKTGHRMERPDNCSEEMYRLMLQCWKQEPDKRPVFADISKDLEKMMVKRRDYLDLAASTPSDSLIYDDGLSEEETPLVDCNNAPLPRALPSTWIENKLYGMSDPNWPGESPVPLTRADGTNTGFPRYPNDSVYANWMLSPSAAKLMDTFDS

On to `Cc1cc(C(F)(F)F)ccc1C(=O)Nc1ccc(Cl)c(-c2nccc3ccccc23)c1` [ABI2099], for which the “enhancement of the antitumor activity of Abraxane” value in data set [1] (setting [24]) is recorded as “significantly enhanced the antitumor activity of Abraxane®”. The “tumor inhibition as single agent” value in [1] was “none of ABI2012, ABI1914, ABI2088, and ABI2099 as single agent showed significant tumor inhibition effects”.

The inhibition is the drop in the measured response relative to a control, in per cent. Regarding `CS(=O)(=O)c1ccc(C(=O)Nc2ccc(Cl)c(-c3nccc4ccccc34)c2)c(Cl)c1` [ABI1914], the inhibition at 1 µM in data set [2] is -18%; in data set [3], 3%; in data set [4] it was -12%; in data set [5], -4%; in data set [6], -14%; in [7] it was -3%. Also, the inhibition at 1 µM in data set [8] was -12%; in data set [9], 1%; in data set [10], 6%; in data set [11] it was -3%; in data set [12], -5%; in data set [13] it was 3%. The inhibition at 1 µM was -9% in data set [14], 3% in data set [15], 5% in data set [16] and -3% in [17]. Also, in [1], the “tumor inhibition as single agent” value is “none of ABI2012, ABI1914, ABI2088, and ABI2099 as single agent showed significant tumor inhibition effects”.

What is called AUC(0-inf) is total exposure, with the tail of the curve extrapolated. The low end stands for less exposure, the high end for more exposure. What is called half-life is the time in which the quantity being followed falls by half. The low end stands for fast loss, the high end for slow loss. What is called Cmax is the peak of the concentration-time curve. The Tmax is the time from dosing to the highest level. As for `CS(=O)(=O)c1ccc(C(=O)Nc2ccc(Cl)c(-c3ccccn3)c2)c(Cl)c1` [GDC-0449], the inhibition at 1 µM was 13% in [2]; -19% in data set [3]; -33% in [4]; -4% in data set [5]; 1% in data set [6]; -9% in data set [7]. Also, the inhibition at 1 µM in data set [8] was -7%; in [9] it was 7%; in data set [10] it was -6%; in data set [11] it was 1%; in data set [12], 8%; in data set [13], -4%. Besides, the inhibition at 1 µM in data set [14] is 2%; in data set [15], -1%; in data set [16] it was -19%; in [17] it was 0%. Moreover, in data set [1], the “tumor inhibition as single agent” value is “none of ABI2012, ABI1914, ABI2088, and ABI2099 as single agent showed significant tumor inhibition effects”. In [18] (Oral dosing), the F amounted to 53%. The AUC(0-inf) in data set [18] (in vivo, IV dosing) was 3980 ± 1540 ng·h/mL; in [18] (in vivo, Oral dosing), 10500 ± 3150 ng·h/mL. Also, the clearance in data set [18] (in vivo, IV dosing) was 4.65 ± 1.81 mL/min/kg. This compound showed a half-life in data set [18] (in vivo, IV dosing) of 79.2 ± 15.5 min. This compound gave a Cmax in [18] (in vivo, Oral dosing) of 2760 ± 1020 ng/mL. The Tmax in [18] (in vivo, Oral dosing) came to 40 ± 17.3 min.

`CC(=O)Nc1ccc(C(=O)Nc2ccc(Cl)c(-c3nccc4ccccc34)c2)c(Cl)c1` [ABI2088]: in data set [1] (setting [24]), the “enhancement of the antitumor activity of Abraxane” value is “significantly enhanced the antitumor activity of Abraxane®”. The “tumor growth inhibition in combination with Abraxane” value in [1] (day 22, compound 75 mg/kg qdx12 i.p. + Abraxane 10 mg/kg q4dx3 i.v.) is “about 100%”. Moreover, the “tumor inhibition as single agent” value in data set [1] was “none of ABI2012, ABI1914, ABI2088, and ABI2099 as single agent showed significant tumor inhibition effects”. The compound also showed a F in [18] (Oral dosing) of 62%. In [18] (in vivo, IV dosing), this compound gave an AUC(0-inf) of 1390 ± 164 ng·h/mL, a clearance of 12.1 ± 1.59 mL/min/kg and a half-life of 78.6 ± 8.4 min. Further, in data set [18] (in vivo, IV dosing, read-out: Vss), the Vd was determined as 1.02 ± 0.11 L/kg. In data set [18] (in vivo, Oral dosing), the AUC(0-inf) was 4310 ± 1200 ng·h/mL, the Cmax turned out to be 1000 ± 659 ng/mL and the Tmax was determined as 30 min.

On to `CC1=C2C[C@H]3[C@@H](CC[C@@H]4C[C@H](NS(C)(=O)=O)CC[C@@]43C)[C@@H]2CC[C@@]2(C1)O[C@@H]1C[C@H](C)CN[C@H]1[C@H]2C` [IPI-926, IPI926], for which the “human Gli1 mRNA levels” value in data set [19] was “not modulated”. Further, the “murine Gli1 mRNA expression” value in data set [20] was “inhibition of murine Glil mRNA expression”. Moreover, the “average peak time for contrast agent levels” value in [21] (40 mg/kg orally for seven consecutive days, vehicle 11.0 seconds, p=0.0321) is 4.75 s. Moreover, the “Time to Peak (contrast)” value in data set [21] (individual mice, 40 mg/kg orally for seven consecutive days, 40 mg/kg) was 3 s and 4 s and 6 s (2×). Moreover, the tumor perfusion entry in [21] (subcutaneous L3.6pl model, 40 mg/kg orally for seven days) is “increased tumor perfusion”. The “median % of mice on study (mice taken off study when tumors reached 1000 mm^3)” value in data set [22] was “no effect as a single agent”. Further, in data set [23], the tumor growth inhibition stood at 38%.
